Data published in patent US20050118290A1, “Compositions and method for treatment of steroid/nuclear receptor-mediated diseases” (University of Singapore, priority 2003, published 2005).

How the values were obtained:
Assay type in all cases: cell-based
PPARα = target: T1, PPARα (Homo sapiens, UniProt Q07869); test: Chimeric Gal4DBD-PPARαLBD receptor / UASg-luciferase reporter gene assay in HeLa cells
T1 construct: expressed in transfected cells; host or cells: HeLa
T1 sequence (Q07869 239-466 limits assumed): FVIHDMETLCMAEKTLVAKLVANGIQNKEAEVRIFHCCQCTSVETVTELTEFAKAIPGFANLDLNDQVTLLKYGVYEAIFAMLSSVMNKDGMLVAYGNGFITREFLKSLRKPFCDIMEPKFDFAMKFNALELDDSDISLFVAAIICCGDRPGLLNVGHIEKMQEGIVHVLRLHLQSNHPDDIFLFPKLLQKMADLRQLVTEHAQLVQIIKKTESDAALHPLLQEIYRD
Excerpt: (§1) In an example of such a reporter gene assay, a plasmid containing chimeric Ga14DBD-PPARLBD receptor cDNA was constructed by excising the ligand binding domain (LBD) of full length PPARγ and PPARα and ligating the resulting fragments in frame to the Ga14-DNA binding domain (DBD) of Saccharomyces cerevisiae in a pM vector (Clontech). Specifically, to construct Ga14DBD-PPARγLBD plasmid, pSG5 expression vector (Stratagene) containing full length PPARγ was excised with Rsa I and blunt ligated to Hind III site of pMGa14DBD expression plasmid (Clontech). To construct Ga14DBD-PPARαLBD plasmid, pSG5 expression vector (Stratagene) containing full length PPARα was excised with BstU I and BamH I and blunt-end ligated in frame to BamH I site of pMGa14DBD expression plasmid (Clontech). […] Ga14 DBD binds very strongly to the exogenous UASg promoter, thereby giving rise to a sensitive and specific assay. To measure PPARγ and PPARα agonist activity, HeLa cells were grown in 24-well microtiter plates and then transiently co-transfected with the two plasmids (chimeric PPAR receptor and UASg reporter gene) using Lipofectamine (Invitrogen). […] Concurrently, cells exposed to known PPAR ligands served as positive controls. Replicate wells, exposed to the vehicle solvent (i.e., ethanol or methanol) in which herbal extracts were dissolved, were used as negative controls. After the 40 hr incubation period, cells were rinsed with phosphate buffered saline (PBS), lysis buffer was added, and cell lysates were collected for measurement of luciferase activity using a luminometer. […] All data points are in triplicate. The data points represent the mean of triplicate wells. Luciferase activity in such an assay accurately reflects the activity of any ligands on PPARγ or PPARα.

human androgen receptor = target: T2, human androgen receptor (Homo sapiens, UniProt P10275); test: AR (ARE)2-Luc luciferase reporter gene assay in HeLa cells
T2 construct: expressed in transfected cells; host or cells: HeLa
T2 sequence (P10275 1-920): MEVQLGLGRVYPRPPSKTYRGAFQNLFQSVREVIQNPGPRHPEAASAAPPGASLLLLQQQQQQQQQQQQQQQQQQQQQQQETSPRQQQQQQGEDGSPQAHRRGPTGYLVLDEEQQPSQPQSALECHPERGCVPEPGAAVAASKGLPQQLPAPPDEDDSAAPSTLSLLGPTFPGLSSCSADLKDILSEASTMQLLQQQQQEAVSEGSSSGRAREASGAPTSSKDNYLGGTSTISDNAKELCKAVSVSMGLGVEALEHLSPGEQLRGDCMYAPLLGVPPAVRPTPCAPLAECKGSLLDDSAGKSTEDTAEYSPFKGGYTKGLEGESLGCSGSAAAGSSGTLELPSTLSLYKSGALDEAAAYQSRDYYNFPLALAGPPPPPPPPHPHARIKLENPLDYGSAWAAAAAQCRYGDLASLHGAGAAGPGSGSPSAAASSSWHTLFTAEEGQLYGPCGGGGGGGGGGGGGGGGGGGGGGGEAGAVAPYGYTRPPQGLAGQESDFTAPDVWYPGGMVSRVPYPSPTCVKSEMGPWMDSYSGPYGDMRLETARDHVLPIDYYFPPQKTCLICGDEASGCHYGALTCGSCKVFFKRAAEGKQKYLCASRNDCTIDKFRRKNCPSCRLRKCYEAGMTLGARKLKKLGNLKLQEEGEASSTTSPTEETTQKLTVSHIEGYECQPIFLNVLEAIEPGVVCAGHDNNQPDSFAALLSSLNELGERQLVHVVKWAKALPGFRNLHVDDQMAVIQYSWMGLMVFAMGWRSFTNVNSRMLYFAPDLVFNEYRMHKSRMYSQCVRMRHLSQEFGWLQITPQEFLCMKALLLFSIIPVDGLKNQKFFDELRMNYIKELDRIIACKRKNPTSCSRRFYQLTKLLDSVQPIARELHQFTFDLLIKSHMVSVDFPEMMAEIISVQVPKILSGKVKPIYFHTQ
Procedure: The capacity of HQ extract to activate other steroid receptors, namely AR, PR, GR, ERα and ERβ was examined. […] The (ARE)2-Luc plasmid consist of two repeats of Androgen Response Element (ARE) cloned upstream of the Luciferase Reporter gene in a pGL3-Basic vector (Promega).
(§2) AR, PR, GR and ERα and […] were determined by comparing luciferase activity in test cells with control cells exposed to vehicle (i.e., ethanol or methanol) only, analogous to the determination of PPAR activity as described in the previous examples.

PPARγ = target: T3, PPARγ (Homo sapiens, UniProt P37231); test: Chimeric Gal4DBD-PPARγLBD receptor / UASg-luciferase reporter gene assay in HeLa cells
T3 construct: expressed in transfected cells; host or cells: HeLa
T3 sequence (P37231 238-503 limits assumed): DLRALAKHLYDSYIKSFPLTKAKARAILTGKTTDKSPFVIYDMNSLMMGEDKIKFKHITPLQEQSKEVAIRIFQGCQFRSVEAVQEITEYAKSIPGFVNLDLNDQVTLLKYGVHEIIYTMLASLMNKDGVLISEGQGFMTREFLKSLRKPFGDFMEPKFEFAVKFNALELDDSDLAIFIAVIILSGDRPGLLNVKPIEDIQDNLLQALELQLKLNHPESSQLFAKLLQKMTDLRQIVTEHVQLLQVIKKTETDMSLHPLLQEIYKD
Excerpt: as §1

[1] = target: T4, human estrogen receptor ERβ (Homo sapiens, UniProt Q92731); test: ERβ MMTV-ERE-LUC reporter gene assay in HeLa cells; conditions: for ERβ activity comparable to % maximal activity of Estradiol / maximal fold increase in ERβ activity: 30×10^−6 g/ml
T4 construct: expressed in transfected cells; host or cells: HeLa
T4 sequence (Q92731 whole entry): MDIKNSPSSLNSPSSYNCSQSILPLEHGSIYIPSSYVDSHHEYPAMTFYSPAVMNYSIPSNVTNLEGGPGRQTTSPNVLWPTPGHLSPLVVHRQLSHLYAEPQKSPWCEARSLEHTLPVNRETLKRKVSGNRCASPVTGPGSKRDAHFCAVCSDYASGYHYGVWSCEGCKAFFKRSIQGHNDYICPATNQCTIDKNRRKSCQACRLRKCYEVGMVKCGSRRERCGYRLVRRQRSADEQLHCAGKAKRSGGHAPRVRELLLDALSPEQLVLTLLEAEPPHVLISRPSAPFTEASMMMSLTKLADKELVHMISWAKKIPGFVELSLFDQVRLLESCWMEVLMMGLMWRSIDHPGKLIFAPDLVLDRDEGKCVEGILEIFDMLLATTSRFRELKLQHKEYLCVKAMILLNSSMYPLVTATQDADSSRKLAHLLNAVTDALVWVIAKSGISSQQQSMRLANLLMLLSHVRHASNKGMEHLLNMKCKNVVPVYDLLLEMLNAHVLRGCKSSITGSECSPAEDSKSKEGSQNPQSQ
Procedure: ERα and ERβ activity were assayed using plasmids encoding either ERα or ERβ co-transfected with the ERE-LUC reporter gene. To assay estrogen receptor agonist activity, HeLa cells were transiently co-transfected with two plasmids (Tcherepanova, et al., 2000) using Lipofectamine. The first plasmid comprised DNA encoding human estrogen receptor (either ERα or ERβ), and the second plasmid comprised an estrogen-driven reporter system comprising: a luciferase reporter gene (LUC) whose transcription is under the control of upstream regulatory elements comprising 4 copies of the vitellogenin estrogen response element (ERE) cloned into the Mouse Mammary Tumor Virus (MMTV) promoter (the full name of the reporter system being ‘MMTV-ERE-LUC’).
as §2

COc1ccc(-c2coc3cc(O)ccc3c2=O)cc1O [calycosin, 3′,7-Dihydroxy-4′-methoxyisoflavone]
Luciferase activity (Fold over vehicle ± SE) PPARα/WY14643 (30 × 10^−6M) (PPARα; calycosin 3 ×10^−6 g/mL): 197 ± 20.6 Fold | Luciferase activity (Fold over vehicle ± SE) PPARα/WY14643 (30 × 10^−6M) (PPARα; calycosin 10 ×10^−6 g/mL): 257 ± 8.85 Fold | Luciferase activity (Fold over vehicle ± SE) PPARα/WY14643 (30 × 10^−6M) (PPARα; calycosin 30 ×10^−6 g/mL): 294 ± 39.2 Fold | increase of the activity of maximal doses of PPARα agonist (PPARα; with WY14643 30×10^−6M): 1.8 fold | Luciferase activity (Fold over vehicle ± SE) AR/Dihydrotestosterone (1 × 10^−9M) (human androgen receptor; calycosin 3 ×10^−6 g/mL): 1997 ± 96.1 Fold | Luciferase activity (Fold over vehicle ± SE) AR/Dihydrotestosterone (1 × 10^−9M) (human androgen receptor; calycosin 10 ×10^−6 g/mL): 4080 ± 5.67 Fold | Luciferase activity (Fold over vehicle ± SE) AR/Dihydrotestosterone (1 × 10^−9M) (human androgen receptor; calycosin 30 ×10^−6 g/mL): 4502 ± 995 Fold | increase of the activity of maximal doses of AR agonist (human androgen receptor; with dihydrotestosterone 1×10^−9M): 5.8 fold | PPARγ activity comparable to % maximal activity of pioglitazone (PPARγ; 30×10^−6 g/ml): ~50% | maximal fold PPARγ activity (PPARγ; 30×10^−6 g/ml): 40 fold | Luciferase activity (Fold over vehicle ± SE) PPARγ/Pioglitazone (30 × 10^−6M) (PPARγ; calycosin 3 ×10^−6 g/mL): 105 ± 10.7 Fold | Luciferase activity (Fold over vehicle ± SE) PPARγ/Pioglitazone (30 × 10^−6M) (PPARγ; calycosin 10 ×10^−6 g/mL): 162 ± 28.5 Fold | Luciferase activity (Fold over vehicle ± SE) PPARγ/Pioglitazone (30 × 10^−6M) (PPARγ; calycosin 30 ×10^−6 g/mL): 253 ± 30.7 Fold | increase of the activity of maximal doses of PPARγ agonist (PPARγ; with pioglitazone 30×10^−6M): 3 fold | effect on ERβ activity of estradiol ([1]; 1 to 30×10^−6 g/mL + estradiol 1×10^−9M): additive | ERβ activity comparable to % maximal activity of Estradiol [1]: ~400% | maximal fold increase in ERβ activity [1]: 100 fold | Luciferase activity (Fold over vehicle ± SE) ERβ/Estradiol (1 × 10^−9M) ([1]; calycosin 3 ×10^−6 g/mL): 55.2 ± 1.21 Fold | Luciferase activity (Fold over vehicle ± SE) ERβ/Estradiol (1 × 10^−9M) ([1]; calycosin 10 ×10^−6 g/mL): 65.1 ± 2.71 Fold | Luciferase activity (Fold over vehicle ± SE) ERβ/Estradiol (1 × 10^−9M) ([1]; calycosin 30 ×10^−6 g/mL): 70.7 ± 3.61 Fold

O=c1c(-c2ccc(O)cc2)coc2cc(O)ccc12 [daidzein]
PPARα activity comparable to % maximal activity of W14643 (PPARα; 10×10^−6 g/ml): ~73% | maximal fold PPARα activity (PPARα; 10×10^−6 g/ml): 8 fold | Luciferase activity (Fold over vehicle ± SE) PPARα/WY14643 (30 × 10^−6M) (PPARα; daidzein 5 ×10^−6 g/mL): 58.2 ± 14.9 Fold | Luciferase activity (Fold over vehicle ± SE) PPARα/WY14643 (30 × 10^−6M) (PPARα; daidzein 10 ×10^−6 g/mL): 71.3 ± 9.90 Fold | Luciferase activity (Fold over vehicle ± SE) PPARα/WY14643 (30 × 10^−6M) (PPARα; daidzein 20 ×10^−6 g/mL): 53.4 ± 13.3 Fold | Luciferase activity (Fold over vehicle ± SE) AR/Dihydrotestosterone (1 × 10^−9M) (human androgen receptor; daidzein 5 ×10^−6 g/mL): 1703 ± 154 Fold | Luciferase activity (Fold over vehicle ± SE) AR/Dihydrotestosterone (1 × 10^−9M) (human androgen receptor; daidzein 10 ×10^−6 g/mL): 1684 ± 146 Fold | Luciferase activity (Fold over vehicle ± SE) AR/Dihydrotestosterone (1 × 10^−9M) (human androgen receptor; daidzein 20 ×10^−6 g/mL): 1547 ± 257 Fold | PPARγ activity comparable to % maximal activity of pioglitazone (PPARγ; 20×10^−6 g/m): ~22% | maximal fold PPARγ activity (PPARγ; 20×10^−6 g/m): 20 fold | ERβ activity comparable to % maximal activity of Estradiol [1]: ~200% | maximal fold increase in ERβ activity [1]: 29 fold
